Source: patent US7722858B2, “Prevention and treatment of atherosclerosis by reducing carbamylation of LDL or the effects of carbamylated LDL” (Board of Trustees of the University of Arkansas, priority 2001, dated 2010)
Entries after “also recorded” stand apart in the source; their conditions may differ.

What was measured:
lens protein = conditions: cited from earlier work
HCAECs = experiment: Flow cytometry of LDL-treated cells double-labeled with BrdU and 7-AAD; type: cell-based, human
Method: Flow cytometry of LDL-treated cells double-labeled with BrdU and 7-AAD (marker of total DNA) was performed to detect whether BrdU incorporation is linked to DNA synthesis or DNA repair, and whether mitosis is suppressed, and thus accumulation of polyploid cells is associated with the increase of BrdU incorporation.

carbamylation of LDL = experiment: In vitro inhibition of LDL carbamylation by potassium cyanate; type: biochemical, human; conditions: molar ratios of 1:1 to 16:1 (L-lysine:KOCN)
Method: CLDL (cLDL) was produced by chemical modification of nLDL. Native LDL was incubated under sterile conditions with potassium cyanate (Aldrich; Milwaukee, Wis.) (20 mg KOCN/mg nLDL) at 35° C. for 4 hours. Salt was removed by excessive dialysis against 0.15 M NaCl, 0.01% EDTA, pH 7.0 at 4° C. for 48 hours under sterile conditions. To obtain cLDL carbamylated to different degrees, various incubation periods, from 5 to 300 min, were used.
Assessment of carbamylation was made (a) on the basis of relative electrophoretic mobility in agarose gel, and (b) by the homocitrulline assay as described by Trepanier et al.. Briefly, 25 μg of LDL protein in PBS, pH 7.4 (50 μl volume) was incubated with 2 μg proteinase K and 1% SDS (v:v) at 37° C. for 2 hours. Then 250 μl of urea-nitrogen reagent (0.83 M sulfuric acid, 1.13 M orthophosphoric acid, 0.55 mM thiosemicarbazide, 2.6 mM cadmium sulfate), 50 μl 3% diacetyl monoxime in water was added and the mixture was incubated at 97° C. for 30 min. Samples were transferred into a 96-well plate and absorption of chromogen(s) was recorded at 530 nm. Homocitrulline (carbamyl lysine) standard curves (0-30 nmol) were generated using serial dilutions of a stock solution (200 μM) in PBS, pH 7.4. Results are expressed as nmol homocitrulline/mg LDL protein).

rat lens = rat lens incubated in cyanate; cited from earlier work

CC(C)Cc1ccc(C(C)C(=O)O)cc1 (stereo not shown) [ibuprofen]
binding of cyanate to lens protein (lens protein): dose-dependent decrease

N#C[O-].[K+] [Potassium cyanate, potassium cyanate]
induction of proliferation or DNA synthesis (HCAECs): did not induce proliferation or DNA synthesis

NCCCC[C@H](N)C(=O)O [L-lysine]
inhibition of carbamylation of LDL in vitro (carbamylation of LDL): can inhibit carbamylation of LDL in vitro; also recorded: inhibition of LDL carbamylation

NCC(=O)O [L-glycine]
inhibition of carbamylation of LDL in vitro (carbamylation of LDL): can inhibit carbamylation of LDL in vitro

CC(=O)Oc1ccccc1C(=O)O [aspirin]
cyanate-induced increase in phase separation temperature (rat lens): aspirin-preventable increase in phase separation temperature

O=C(O)COc1nn(Cc2ccccc2)c2ccccc12 [Bendazac]
carbamylation of lens protein (lens protein; present with cyanate): inhibits the carbamylation of lens protein

N=C(N)NCCC[C@H](N)C(=O)O [L-arginine]
inhibition of carbamylation of LDL in vitro (carbamylation of LDL): can inhibit carbamylation of LDL in vitro
